Data: US8546102B2, “Methods for determining sodium-proton-exchanger ligand efficiency” (Sanofi, priority 2008, dated 2013)
Where “and” joins values, the source holds several entries; their conditions need not be identical. Equal values may be shown once. Read-outs that look alike come from different tables or passages of the source.

Key:
[1] = NHE1 plasma assay (pH recovery, BCECF/FLIPR) with rabbit plasma; type: cell-based, human; settings: male, New Zealand, rabbit, plasma, oral, 0.3 % in chow; rabbits on 0.3% cariporide chow, 1 week; inferred from complete NHE1 block
Text: (§1) Plasma samples were obtained from male New Zealand rabbits (2.5-3.5 kg) maintained on standard rabbit chow with 0.3% cariporide (NHE inhibitor). A blood sample was taken after 1 week from the auricular artery for the determination of the plasma concentrations of cariporide. Determination of plasma concentration of cariporide was done as described below:
(§2) The NHE-Gene (SLC9A1, Franchi A. et al., Proc Natl Acad Sci USA., 1986 December; 83(24):9388-92.) was cloned into the pMamneo-vector and introduced into LAP1 (mouse LTK-cell line) cells. Stable cell lines were generated from transfected cells.
(§3) LAP1 (mouse LTK-cell line) cells stably expressing human NHE1 (hNHE1) were seeded with a density of 25.000 cells/well/100 μl medium (Iscove-medium, 10% FCS, 2 mM L-glutamine, 100 u/ml penicilline/streptomycine, 50 μg/ml gentamicine, 400 μg/ml G418) on black, clear bottom 96-well microplates (Costar®, Corning Inc., Corning, N.Y.). Cells were incubated overnight at 37° C., 5% CO2 and 90% humidity. The medium was discarded prior to measurement and 100 μl/well dye buffer (20 mM HEPES, pH 7.4 adjusted with KOH, 20 mM NH4Cl, 115 mM choline chloride, 1 mM MgCl2, 1 mM CaCl2, 5 mM KCl, 5 mM glucose, 5 μM BCECF) were added. After incubation for 20 min at 37° C. the cells were washed 3-times with Na^+-free washing buffer (5 mM HEPES, pH 7.4 adjusted with KOH, 133.8 mM choline chloride, 4.7 mM KCl, 1.25 mM CaCl2, 1.25 mM MgCl2, 0.97 mM K2HPO4, 0.23 mM KH2PO4, 5 mM glucose), leaving 90 μl of washing buffer per well. pH-recovery was measured with a FLIPR (Fluorometric Imaging Plate Reader, Molecular Devices, Sunnyvale, Calif.; laser power 0.3 W, aperture 4, measuring interval 2 s, time of measurement 120 s). During measurement 90 μl of plasma solution (90% animal plasma from animals feeded w/o antagonist, 10% Na^+-buffer: 10 mM HEPES, pH 7.4 adjusted with KOH, 133.8 mM NaCl, 4.7 mM KCl, 1.25 mM MgCl2, 1.25 mM CaCl2, 0.97 mM Na2HPO4, 0.23 mM NaH2PO4, 5 mM glucose) were added to the wells. Due to the Na^+ in the buffer NHE1 starts to transport H^+ out of the cells, leading to an increase in intracellular pH and fluorescence. High control: plasma solution without antagonist. Low control: plasma solution with 20 μM cariporide (10 μM final concentration). Cariporide was added to the plasma after preparation. […] For calibration different amounts of cariporide and the tested antagonists were added to plasma after preparation to determine the efficiency in animal plasma.
(§4) For calculation of NHE1 activity, the increase in fluorescence between the 12th and 32nd s was calculated. The high control was set as 100% activity whereas the low control determines 0% NHE1 activity. %-activity of the samples was calculated by a comparison to the controls.

human NHE1 (hNHE1) = target: T1, human NHE1 (hNHE1) (Homo sapiens, UniProt P19634); assay: as above; type: cell-based
T1 construct: expressed in transfected cells
T1 sequence (P19634 whole entry): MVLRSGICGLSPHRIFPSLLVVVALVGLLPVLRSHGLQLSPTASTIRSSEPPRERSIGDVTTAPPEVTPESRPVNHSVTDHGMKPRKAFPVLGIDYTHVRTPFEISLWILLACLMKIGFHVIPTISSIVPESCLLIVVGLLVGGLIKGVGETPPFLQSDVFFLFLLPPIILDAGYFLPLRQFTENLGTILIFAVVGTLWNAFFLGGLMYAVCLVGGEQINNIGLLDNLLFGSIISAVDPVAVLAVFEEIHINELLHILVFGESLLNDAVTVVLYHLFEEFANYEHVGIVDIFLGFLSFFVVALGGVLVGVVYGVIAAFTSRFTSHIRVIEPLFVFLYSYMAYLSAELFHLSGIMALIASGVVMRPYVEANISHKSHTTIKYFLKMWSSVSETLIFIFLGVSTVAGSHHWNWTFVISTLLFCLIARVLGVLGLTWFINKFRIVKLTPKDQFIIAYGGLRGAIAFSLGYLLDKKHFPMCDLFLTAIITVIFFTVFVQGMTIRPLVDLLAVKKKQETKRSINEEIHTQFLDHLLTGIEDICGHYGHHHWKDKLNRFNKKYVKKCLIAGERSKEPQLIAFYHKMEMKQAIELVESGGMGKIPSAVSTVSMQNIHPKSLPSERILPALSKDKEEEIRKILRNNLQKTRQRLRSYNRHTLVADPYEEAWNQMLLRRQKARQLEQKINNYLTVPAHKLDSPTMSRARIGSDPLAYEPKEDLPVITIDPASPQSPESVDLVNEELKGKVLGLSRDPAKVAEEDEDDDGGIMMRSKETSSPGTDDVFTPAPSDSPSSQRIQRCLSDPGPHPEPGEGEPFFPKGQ
Text: as §1, §2, §3, §4

hNHE1 [2] = target: T2, hNHE1 (Homo sapiens, UniProt P19634); assay: NHE1 plasma assay (pH recovery, BCECF/FLIPR) with plasma of treated rats; type: cell-based
T2 construct: expressed in transfected cells
T2 sequence (P19634 whole entry): as above
Protocol: The animals used for the plasma studied were pretreated as follows: • Animals: Male Sprague Dawley rats (Moellegard) • Body weight: 320-360 g • Anesthesia: Thiopental-Na (Trapanal 100 mg/kg i.p.) • Respiration: 40 Vol % O2 • Blood gases: 32-40 mmHg pCO2 • 80-100 mmHg PO2 • pH 7.35-7.49 • SaO2>96% • Ischemia: 20 min occlusion of LAD (left anterior descending coronary artery) • Reperfusion: 60 min • Body temperature: 36.5° C. • Measurement parameters: myocardial infarct mass mean arterial blood pressure heart rate • compound plasma levels • Blood samples: single probe, 85 min after i.v. injection (end of reperfusion) • or • single probe 200 min after oral treatment (end of reperfusion)
Different amounts of plasma were prepared from groups I to VII 85 mins after injection (groups I-IV, VII) or 200 mins after treatment (groups V-VI) and from untreated rats. Plasma was stored at −20° C. until the analysis was performed.
(§5) For the cell-based determination of NHE1 ligand efficiency, LAP1 (mouse LTK-cell line) cells stably expressing hNHE1 (see Example 1) were seeded at a density of 25.000 cells/well/100 μl medium (Iscove-medium, 10% FCS, 2 mM L-glutamine, 100 μ/ml penicilline/streptomycine, 50 μg/ml gentamicine, 400 μg/ml G418) on black, clear bottom 96-well microplates (Costar®, Corning Inc., Corning, N.Y.). Cells were incubated overnight at 37° C., 5% CO2 and 90% humidity. The medium was discarded prior to measurement and 100 μl/well dye buffer (20 mM HEPES, pH 7.4 adjusted with KOH, 20 mM NH4Cl, 115 mM choline chloride, 1 mM MgCl2, 1 mM CaCl2, 5 mM KCl, 5 mM glucose, 5 μM BCECF) were added. After incubation for 20 min at 37° C. the cells were washed 3-times with Na^+-free washing buffer (5 mM HEPES, pH 7.4 adjusted with KOH, 133.8 mM choline chloride, 4.7 mM KCl, 1.25 mM CaCl2, 1.25 mM MgCl2, 0.97 mM K2HPO4, 0.23 mM KH2PO4, 5 mM glucose), leaving 90 μl of washing buffer per well. The plasma probes were prepared as followed: 10% (v/v) Na^+-buffer (10 mM HEPES, pH 7.4 adjusted with KOH, 133.8 mM NaCl, 4.7 mM KCl, 1.25 mM MgCl2, 1.25 mM CaCl2, 0.97 mM Na2HPO4, 0.23 mM NaH2PO4, 5 mM glucose) were added to 90% (v/v) rat plasma.
High controls (plasma solution without antagonist) and low controls (plasma solution with 20 μM cariporide, 10 μM final concentration) were prepared. […]
The pH-recovery was measured with a FLIPR (Fluorometric Imaging Plate Reader, Molecular Devices, Sunnyvale, Calif.; laser power 0.3 W, aperture 4, measuring interval 2 s, time of measurement 120 s). […]
For calculation of NHE1 activity, the increase in fluorescence between the 12th and 32nd s was calculated. […] Activity (%) of the samples was calculated by a comparison of the controls. Compound plasma levels were calculated in relation to the calibration curve.

hNHE1 [3] = target: T2, hNHE1; assay: Calibration curve of NHE1 activity, compound dilution series in rat plasma; type: cell-based
Protocol: as §5, with “plasma. High controls (plasma solution without antagonist) and low controls (plasma solution with 20 μM cariporide, 10 μM final concentration) were prepared. A dilution series of cariporide and COMPOUND X in 10% (v/v) Na^+-buffer/90% (v/v) rat plasma was used for a calibration curve to calculate the compound concentration in the rat plasma probes FIGS. 1 and 2). The pH-recovery was measured with a FLIPR (Fluorometric Imaging Plate Reader, Molecular Devices, Sunnyvale, Calif.; laser power 0.3 W, aperture 4, measuring interval 2 s, time of measurement 120 s). During measurement 90 μl of plasma solution were added to the wells. For calculation of NHE1 activity, the increase in fluorescence between the 12th and 32nd s was calculated. The high control was set as 100% activity and the low control as 0% NHE1 activity. Activity (%) of the samples was calculated by a comparison of the controls. Compound plasma levels were calculated in relation to the calibration curve. Additionally, calibration curves were used to calculate the compound plasma levels in the probe sets.” for “plasma.”

[4] = rat plasma, 1 mg/kg i.v., 85 min after injection

concentration at 1 week [1]: ≥ 10 µM | block of NHE1 activity (human NHE1 (hNHE1); 10 μM cariporide (final) added to plasma): complete block | Fluorescence increase measured between the 12th and 32nd s, Average (human NHE1 (hNHE1); low control: rabbit plasma with 10 μM cariporide, high control 14416): 631 | block of NHE1 by plasma probes (human NHE1 (hNHE1); plasma from rabbits on 0.3% cariporide chow): complete block | rel. FI increase mean (hNHE1 [2]; low control: rat plasma solution with 10 μM final cariporide): 3110 | Activity [%] mean (hNHE1 [2]; low control: rat plasma with 10 μM final cariporide, set as 0% NHE1 activity): 0% | Activity [%] mean (hNHE1 [2]; [4]): 49.95% | rel. FI increase mean (hNHE1 [2]; [4]): 7392 | EC50 (hNHE1 [3]; calibration curve, dilution series in 90% rat plasma/10% Na+-buffer, LAP1 cells expressing hNHE1, read-out: calculated efficiency in rat plasma (EC50)): 0.115 µM | Fit parameter A of the calibration curve (hNHE1 [3]; rat plasma calibration curve): −7.947 | Fit parameter B of the calibration curve (hNHE1 [3]; rat plasma calibration curve): 86.547 | Fit parameter D of the calibration curve (hNHE1 [3]; rat plasma calibration curve): −1.239 | EC50 (hNHE1 [3]; rat plasma calibration curve, C corresponds to the EC50 (0.662 = 662 nM for compound X), read-out: Fit parameter C of the calibration curve): 0.189 µM
Structure (SMILES): CC(C)c1ccc(C(=O)NC(=N)N)cc1S(C)(=O)=O [cariporide]
NHE1 Activity [%] (human NHE1 (hNHE1); plasma from individual rabbits on 0.3% cariporide chow, sample after 1 week, relative to high/low controls): −0.63% and −5.45% (2×) and −1.53% and −0.39% and −2.25%
